The values below come from US20260132140A1, “IMIDAZOLYL-AMINO-PYRAZINE-CARBONITRILS AS CHK-1 INHIBITORS” (BenevolentAI Bio Limited, priority 2022, published 2026).

For test [1], the target named is T1, human Chk2 kinase (Homo sapiens, UniProt O96017).
The next test concerns the target T2, RSK1 (Homo sapiens, UniProt Q15418).
T2 construct: purchased Eurofins (KinaseProfiler service)
Kind of test: RSK1-4 kinase assay (Eurofins KinaseProfiler, radiometric): RSK1. To be noted: approximately ATP Km. Format: biochemical. An excerpt:
(§1) The radiometric kinase activity assays were run at approximately the ATP Km for each kinase and the IC50 data is shown in Table 24.

A further test has as its target T3, RSK4 (Homo sapiens, UniProt Q9UK32).
T3 construct: purchased Eurofins (KinaseProfiler service)
Kind of test: RSK1-4 kinase assay (Eurofins KinaseProfiler, radiometric): RSK4. Format: biochemical. As to conditions: approximately ATP Km.
Excerpt: as §1

For another test, the target named is T4, RSK3 (Homo sapiens, UniProt Q15349).
T4 construct: purchased Eurofins (KinaseProfiler service)
Kind of test: RSK1-4 kinase assay (Eurofins KinaseProfiler, radiometric): RSK3. Format: biochemical. As to conditions: approximately ATP Km.
Excerpt: as §1

In a further test the target is T5, RSK2 (Homo sapiens, UniProt P51812).
T5 construct: purchased Eurofins (KinaseProfiler service)
Kind of test: RSK1-4 kinase assay (Eurofins KinaseProfiler, radiometric): RSK2. To be noted: approximately ATP Km. Format: biochemical.
Excerpt: as §1

In test [2] the test system is pChk1(Ser296) in SW620 cells. Kind of test: pChk1(Ser296) sandwich ELISA, cell-based on-target kinase activity. As to conditions: Homo sapiens, SW-620, neocarzinostatin 7.5 μM, 2 hours, read-out: SW620 pIC50 (converted). On the procedure:
ELISA assays were performed as per the manufacturer's protocol. […] Selected compounds of the invention were tested as a 8-point concentration response up to a maximum concentration of either 1 μM, 3 μM or 10 μM. The percent (%) effect i.e. inhibition at each concentration of compound was calculated based on, and relative to, the amount of inhibition produced in the vehicle control and inhibited control wells contained within each plate.
For orientation: An ELISA detects its analyte on a solid surface through an enzyme-linked reagent.

The subject of another test is GBM LN18 cells. Kind of test: In vitro cell viability assay (Cell Titre Glo, 72 hours). Type of test: cell-based. As to conditions: Homo sapiens, LN-18, read-out: LN18 pIC50 (converted). On the procedure: GBM LN18 cells were incubated with increasing concentrations of selected compounds of the invention for 72 hours prior to the measurement of ATP in metabolically viable cells with the Cell Titre® Glo Luminescent reagent. A 10-point concentration response curve up to a maximum concentration of 10 μM was tested.
The percent (%) effect i.e., inhibition at each concentration of compound was calculated based on, and relative to the amount of inhibition produced in the vehicle control and inhibited control wells contained within each plate.

A further test concerns the target T6, human Chk1 kinase (Homo sapiens, UniProt O14757).
T6 sequence (O14757 1-476): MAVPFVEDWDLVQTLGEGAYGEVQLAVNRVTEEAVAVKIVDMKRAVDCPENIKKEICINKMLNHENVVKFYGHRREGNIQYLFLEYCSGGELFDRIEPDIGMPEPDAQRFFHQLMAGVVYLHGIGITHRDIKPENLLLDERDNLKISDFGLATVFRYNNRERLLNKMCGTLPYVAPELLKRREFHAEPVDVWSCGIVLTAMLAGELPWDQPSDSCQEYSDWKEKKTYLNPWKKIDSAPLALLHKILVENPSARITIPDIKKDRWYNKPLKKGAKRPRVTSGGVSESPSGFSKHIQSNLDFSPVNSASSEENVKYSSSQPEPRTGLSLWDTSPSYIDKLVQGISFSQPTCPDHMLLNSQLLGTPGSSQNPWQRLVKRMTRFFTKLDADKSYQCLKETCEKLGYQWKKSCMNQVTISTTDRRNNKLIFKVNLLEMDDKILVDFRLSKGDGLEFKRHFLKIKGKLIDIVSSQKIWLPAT
Kind of test: biochemical.

For test [3], the target named is T1, human Chk2 kinase. Kind of test: biochemical.

The structures appear in SMILES notation. Read-outs that look alike come from different tables or passages of the source.

T1 sequence (O96017 whole entry): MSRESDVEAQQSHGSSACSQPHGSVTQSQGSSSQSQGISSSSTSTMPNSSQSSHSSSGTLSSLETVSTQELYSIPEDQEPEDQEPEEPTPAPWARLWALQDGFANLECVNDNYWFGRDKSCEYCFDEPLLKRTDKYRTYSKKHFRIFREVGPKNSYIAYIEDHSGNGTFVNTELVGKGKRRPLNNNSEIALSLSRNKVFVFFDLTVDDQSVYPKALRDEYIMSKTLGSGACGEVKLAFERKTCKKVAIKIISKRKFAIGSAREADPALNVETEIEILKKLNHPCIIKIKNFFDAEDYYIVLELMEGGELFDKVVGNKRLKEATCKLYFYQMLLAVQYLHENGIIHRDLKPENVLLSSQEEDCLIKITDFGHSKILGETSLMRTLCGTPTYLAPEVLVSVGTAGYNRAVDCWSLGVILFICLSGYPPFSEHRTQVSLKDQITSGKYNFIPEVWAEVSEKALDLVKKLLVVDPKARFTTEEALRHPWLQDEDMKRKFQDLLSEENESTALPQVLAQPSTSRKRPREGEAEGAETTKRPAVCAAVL
T3 sequence (Q9UK32 whole entry): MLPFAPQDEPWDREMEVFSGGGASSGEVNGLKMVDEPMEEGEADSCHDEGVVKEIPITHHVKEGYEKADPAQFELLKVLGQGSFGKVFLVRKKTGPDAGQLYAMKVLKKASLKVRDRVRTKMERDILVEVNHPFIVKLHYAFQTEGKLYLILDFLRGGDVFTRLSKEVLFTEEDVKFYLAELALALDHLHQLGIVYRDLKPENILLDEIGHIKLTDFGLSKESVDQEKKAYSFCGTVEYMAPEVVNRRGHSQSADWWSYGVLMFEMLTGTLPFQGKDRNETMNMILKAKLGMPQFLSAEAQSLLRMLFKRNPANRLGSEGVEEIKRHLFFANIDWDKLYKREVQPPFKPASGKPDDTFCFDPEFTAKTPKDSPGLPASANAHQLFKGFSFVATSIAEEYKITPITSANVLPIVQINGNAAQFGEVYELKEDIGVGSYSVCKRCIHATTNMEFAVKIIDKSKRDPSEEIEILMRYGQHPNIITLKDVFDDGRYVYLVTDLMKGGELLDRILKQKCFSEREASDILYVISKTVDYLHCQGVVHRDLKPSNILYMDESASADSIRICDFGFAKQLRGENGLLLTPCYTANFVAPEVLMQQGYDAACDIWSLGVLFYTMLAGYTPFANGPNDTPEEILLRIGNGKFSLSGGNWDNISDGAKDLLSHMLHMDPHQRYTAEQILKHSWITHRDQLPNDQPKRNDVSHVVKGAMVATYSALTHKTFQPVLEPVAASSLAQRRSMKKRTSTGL
T5 sequence (P51812 whole entry): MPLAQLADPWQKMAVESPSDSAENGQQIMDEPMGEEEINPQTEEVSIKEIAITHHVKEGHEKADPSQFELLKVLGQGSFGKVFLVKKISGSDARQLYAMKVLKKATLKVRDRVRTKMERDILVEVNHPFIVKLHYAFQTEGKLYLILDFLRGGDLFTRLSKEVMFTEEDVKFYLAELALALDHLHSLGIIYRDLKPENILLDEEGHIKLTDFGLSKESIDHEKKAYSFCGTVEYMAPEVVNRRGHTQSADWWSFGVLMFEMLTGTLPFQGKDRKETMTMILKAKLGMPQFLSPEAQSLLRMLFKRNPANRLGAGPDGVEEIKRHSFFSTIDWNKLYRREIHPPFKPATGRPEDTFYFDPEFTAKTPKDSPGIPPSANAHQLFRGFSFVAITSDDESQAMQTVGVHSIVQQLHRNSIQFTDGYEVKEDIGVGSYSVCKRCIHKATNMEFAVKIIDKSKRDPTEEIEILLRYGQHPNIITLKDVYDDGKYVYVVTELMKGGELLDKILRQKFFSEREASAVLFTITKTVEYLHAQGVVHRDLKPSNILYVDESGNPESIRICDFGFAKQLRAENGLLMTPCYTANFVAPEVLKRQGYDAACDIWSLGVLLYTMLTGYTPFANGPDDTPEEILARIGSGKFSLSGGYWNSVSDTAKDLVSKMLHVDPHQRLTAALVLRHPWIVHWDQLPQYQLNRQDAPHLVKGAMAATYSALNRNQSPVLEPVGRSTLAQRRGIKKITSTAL
T4 sequence (Q15349 whole entry): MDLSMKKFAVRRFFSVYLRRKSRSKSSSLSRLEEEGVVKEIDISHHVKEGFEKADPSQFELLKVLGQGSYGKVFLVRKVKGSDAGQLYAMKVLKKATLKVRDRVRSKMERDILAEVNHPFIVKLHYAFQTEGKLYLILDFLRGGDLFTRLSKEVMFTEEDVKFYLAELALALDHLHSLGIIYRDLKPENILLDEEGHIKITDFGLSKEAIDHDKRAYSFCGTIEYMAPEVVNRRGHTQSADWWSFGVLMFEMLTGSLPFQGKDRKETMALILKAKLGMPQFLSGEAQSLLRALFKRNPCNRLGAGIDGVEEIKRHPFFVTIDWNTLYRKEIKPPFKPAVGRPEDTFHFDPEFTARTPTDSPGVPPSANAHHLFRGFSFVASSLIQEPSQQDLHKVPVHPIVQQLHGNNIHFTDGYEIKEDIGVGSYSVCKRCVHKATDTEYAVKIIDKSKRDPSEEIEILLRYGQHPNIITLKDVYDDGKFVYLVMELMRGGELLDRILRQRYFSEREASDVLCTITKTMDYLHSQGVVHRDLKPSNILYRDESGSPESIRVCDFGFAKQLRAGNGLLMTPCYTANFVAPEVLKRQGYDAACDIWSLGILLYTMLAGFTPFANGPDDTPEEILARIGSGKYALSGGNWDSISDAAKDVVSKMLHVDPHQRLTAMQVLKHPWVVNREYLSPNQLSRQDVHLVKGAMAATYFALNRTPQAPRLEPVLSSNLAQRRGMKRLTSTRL
T2 sequence (Q15418 whole entry): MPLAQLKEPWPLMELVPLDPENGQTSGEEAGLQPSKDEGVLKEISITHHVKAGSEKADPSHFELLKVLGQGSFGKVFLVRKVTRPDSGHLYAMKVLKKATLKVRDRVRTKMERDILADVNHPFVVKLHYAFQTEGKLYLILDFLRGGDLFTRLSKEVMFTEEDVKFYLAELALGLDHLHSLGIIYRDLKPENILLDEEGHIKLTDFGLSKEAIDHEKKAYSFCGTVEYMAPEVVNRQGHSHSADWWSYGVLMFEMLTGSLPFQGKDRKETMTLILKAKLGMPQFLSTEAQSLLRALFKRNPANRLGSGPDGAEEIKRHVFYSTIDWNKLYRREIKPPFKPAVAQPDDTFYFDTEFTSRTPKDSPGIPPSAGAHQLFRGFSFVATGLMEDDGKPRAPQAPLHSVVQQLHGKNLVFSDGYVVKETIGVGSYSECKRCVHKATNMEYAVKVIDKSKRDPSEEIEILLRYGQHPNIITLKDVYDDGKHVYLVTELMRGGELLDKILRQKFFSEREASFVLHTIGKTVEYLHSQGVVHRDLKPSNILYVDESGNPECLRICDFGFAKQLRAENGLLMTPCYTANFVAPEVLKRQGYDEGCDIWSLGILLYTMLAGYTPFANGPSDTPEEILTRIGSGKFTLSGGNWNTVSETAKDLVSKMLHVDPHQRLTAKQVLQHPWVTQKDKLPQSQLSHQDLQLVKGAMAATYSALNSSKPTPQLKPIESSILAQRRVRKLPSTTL

Regarding `CN1CCOC(c2ccc(-n3cnc(Nc4cnc(C#N)cn4)c3)cc2)C1` (single isomer, unassigned) [Example 106, 5-((1-(4-(4-Methylmorpholin-2-yl)phenyl)-1H-imidazol-4-yl)amino)pyrazine-2-carbonitrile], the IC50 against human Chk2 kinase [1] was in the range of 10 to 100 µM.
The compound `CN(C)C1CCCN(c2cccc(-n3cnc(Nc4cnc(C#N)cn4)c3)c2)C1` (single isomer, unassigned) [Example 112, 5-((1-(3-(3-(Dimethylamino)piperidin-1-yl)phenyl)-1H-imidazol-4-yl)amino)pyrazine-2-carbonitrile] had an IC50 on human Chk2 kinase [1] of 10 to 100 µM.
For the compound `N#Cc1cnc(Nc2cn(-c3ccc(N4CCN5CCCC5C4)cc3)cn2)cn1` (single isomer, unassigned) [Example 118, 5-((1-(4-(Hexahydropyrrolo[1,2-a]pyrazin-2(1H)-yl)phenyl)-1H-imidazol-4-yl)amino)pyrazine-2-carbonitrile], at human Chk2 kinase [1], the IC50 is above 100 µM.
Consider `CN1CCC12CCN(c1ccc(-n3cnc(Nc4cnc(C#N)cn4)c3)cc1)C2` (single isomer, unassigned) [Example 128, 5-((1-(4-(1-Methyl-1,6-diazaspiro[3.4]octan-6-yl)phenyl)-1H-imidazol-4-yl)amino)pyrazine-2-carbonitrile], for which, on human Chk2 kinase [1], the IC50 is above 100 µM.
Turning to `N#Cc1cnc(Nc2cn(-c3ccc(N4CCC(N5CC6(CCC6)C5)C4)cc3)cn2)cn1` (single isomer, unassigned) [Example 132, 5-((1-(4-(3-(2-Azaspiro[3.3]heptan-2-yl)pyrrolidin-1-yl)phenyl)-1H-imidazol-4-yl)amino)pyrazine-2-carbonitrile], the IC50 against human Chk2 kinase [1] was in the range of 1 to 10 µM.
In turn, `N#Cc1cnc(Nc2cn(-c3cccc(N4CCC(N)C(F)(F)C4)c3)cn2)cn1` (single isomer, unassigned) [Example 167, 5-((1-(3-(4-Amino-3,3-difluoropiperidin-1-yl)phenyl)-1H-imidazol-4-yl)amino)pyrazine-2-carbonitrile] returned an IC50 against human Chk2 kinase [1] above 100 µM.
`CN1CCC(F)(c2ccc(-n3cnc(Nc4cnc(C#N)cn4)c3)cc2)CC1` [Example 4, 5-((1-(4-(4-Fluoro-1-methylpiperidin-4-yl)phenyl)-1H-imidazol-4-yl)amino)pyrazine-2-carbonitrile]: the IC50 was above 10 µM against RSK1, 4.96 µM against RSK4, 2.21 µM against RSK3 and 2.46 µM against RSK2.
Regarding `CN(C)[C@@H]1CCN(c2ccc(-n3cnc(Nc4cnc(C#N)cn4)c3)cc2)C1` [Example 12, (R)-5-((1-(4-(3-(Dimethylamino)pyrrolidin-1-yl)phenyl)-1H-imidazol-4-yl)amino)pyrazine-2-carbonitrile], the IC50 was below 1 µM in [2]; above 10 µM at RSK1; 9.2 µM on RSK4; below 1 µM with GBM LN18 cells; below 0.01 µM on human Chk1 kinase; 4.34 µM against RSK3. The IC50 against RSK2 was 6.62 µM.
Take `CN1CCC12CN(c1ccc(-n3cnc(Nc4cnc(C#N)cn4)c3)cc1)C2` [Example 61, 5-((1-(4-(1-Methyl-1,6-diazaspiro[3.3]heptan-6-yl)phenyl)-1H-imidazol-4-yl)amino)pyrazine-2-carbonitrile]: the IC50 was 6.78 µM against RSK1; 10 to 100 µM at human Chk2 kinase [3]; 4.07 µM against RSK4; 0.01 to 0.0316 µM on human Chk1 kinase; 1.92 µM against RSK3; 2.67 µM against RSK2.
For the compound `N#Cc1cnc(Nc2cn(-c3ccccc3OCCCN)cn2)cn1` [Example 168, 5-((1-(2-(3-Aminopropoxy)phenyl)-1H-imidazol-4-yl)amino)pyrazine-2-carbonitrile], the IC50 is 1 to 10 µM in [2]; above 10 µM against RSK1; above 10 µM on RSK4; 1 to 10 µM in the test on GBM LN18 cells; 5.83 µM at RSK3; 7.07 µM on RSK2.
